Results from the kinase profiling compilation of Christmann-Franck et al. (2016).

Tests used:
Assay in all cases: KINOMEscan competition binding
Settings in all cases: compound 10.0 µM
[1] = tested on: KIT (human), P10721 [L576P]
[2] = tested on: FLT3 (human), P36888 [R834Q]
[3] = tested on: FLT3 (human), P36888 [D835H]
[4] = tested on: EGFR (human), P00533 [T790M]
[5] = tested on: MET (human), P08581 [Y1235D]
[6] = tested on: EGFR (human), P00533 [T790M/L858R]
[7] = tested on: ABL1 (human), P00519 [Y253F]
[8] = tested on: EGFR (human), P00533 [747-751 del / S ins]
[9] = tested on: KIT (human), P10721 [V559D/V654A]
[10] = tested on: RET (human), P07949 [M918T]
[11] = tested on: RET (human), P07949 [V804M]
[12] = tested on: EGFR (human), P00533 [752-759 del]

Sequence of RET (human), P07949 [M918T] (P07949 whole entry M918T, looked up): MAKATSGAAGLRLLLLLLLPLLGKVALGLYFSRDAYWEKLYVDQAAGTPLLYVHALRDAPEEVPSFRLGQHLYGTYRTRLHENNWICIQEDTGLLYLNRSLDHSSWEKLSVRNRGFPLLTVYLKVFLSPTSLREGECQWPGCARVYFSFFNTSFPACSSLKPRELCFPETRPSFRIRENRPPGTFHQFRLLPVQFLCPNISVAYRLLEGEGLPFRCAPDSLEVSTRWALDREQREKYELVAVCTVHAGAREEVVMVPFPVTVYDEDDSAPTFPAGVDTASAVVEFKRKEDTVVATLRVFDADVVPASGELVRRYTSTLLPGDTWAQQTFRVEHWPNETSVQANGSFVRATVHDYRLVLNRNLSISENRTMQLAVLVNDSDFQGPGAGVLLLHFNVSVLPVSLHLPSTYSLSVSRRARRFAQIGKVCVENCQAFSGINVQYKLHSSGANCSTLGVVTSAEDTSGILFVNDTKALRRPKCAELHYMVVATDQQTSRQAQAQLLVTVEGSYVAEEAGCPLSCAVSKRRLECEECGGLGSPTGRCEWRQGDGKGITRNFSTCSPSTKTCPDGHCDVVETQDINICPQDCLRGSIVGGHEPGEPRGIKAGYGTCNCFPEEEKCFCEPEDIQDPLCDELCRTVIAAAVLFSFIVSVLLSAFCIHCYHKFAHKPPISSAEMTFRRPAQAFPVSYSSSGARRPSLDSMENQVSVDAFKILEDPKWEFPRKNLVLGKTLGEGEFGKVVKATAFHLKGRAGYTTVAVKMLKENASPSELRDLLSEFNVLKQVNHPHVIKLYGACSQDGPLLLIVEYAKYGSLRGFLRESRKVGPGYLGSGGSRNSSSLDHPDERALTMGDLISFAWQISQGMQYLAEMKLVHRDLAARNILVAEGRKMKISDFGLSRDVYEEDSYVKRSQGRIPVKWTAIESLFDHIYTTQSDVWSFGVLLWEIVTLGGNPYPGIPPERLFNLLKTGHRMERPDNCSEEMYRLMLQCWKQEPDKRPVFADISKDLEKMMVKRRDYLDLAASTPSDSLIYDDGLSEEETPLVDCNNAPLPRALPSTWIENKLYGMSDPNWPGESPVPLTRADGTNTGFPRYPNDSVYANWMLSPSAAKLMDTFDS
Sequence of KIT (human), P10721 [V559D/V654A] (P10721 whole entry V559D/V654A, looked up): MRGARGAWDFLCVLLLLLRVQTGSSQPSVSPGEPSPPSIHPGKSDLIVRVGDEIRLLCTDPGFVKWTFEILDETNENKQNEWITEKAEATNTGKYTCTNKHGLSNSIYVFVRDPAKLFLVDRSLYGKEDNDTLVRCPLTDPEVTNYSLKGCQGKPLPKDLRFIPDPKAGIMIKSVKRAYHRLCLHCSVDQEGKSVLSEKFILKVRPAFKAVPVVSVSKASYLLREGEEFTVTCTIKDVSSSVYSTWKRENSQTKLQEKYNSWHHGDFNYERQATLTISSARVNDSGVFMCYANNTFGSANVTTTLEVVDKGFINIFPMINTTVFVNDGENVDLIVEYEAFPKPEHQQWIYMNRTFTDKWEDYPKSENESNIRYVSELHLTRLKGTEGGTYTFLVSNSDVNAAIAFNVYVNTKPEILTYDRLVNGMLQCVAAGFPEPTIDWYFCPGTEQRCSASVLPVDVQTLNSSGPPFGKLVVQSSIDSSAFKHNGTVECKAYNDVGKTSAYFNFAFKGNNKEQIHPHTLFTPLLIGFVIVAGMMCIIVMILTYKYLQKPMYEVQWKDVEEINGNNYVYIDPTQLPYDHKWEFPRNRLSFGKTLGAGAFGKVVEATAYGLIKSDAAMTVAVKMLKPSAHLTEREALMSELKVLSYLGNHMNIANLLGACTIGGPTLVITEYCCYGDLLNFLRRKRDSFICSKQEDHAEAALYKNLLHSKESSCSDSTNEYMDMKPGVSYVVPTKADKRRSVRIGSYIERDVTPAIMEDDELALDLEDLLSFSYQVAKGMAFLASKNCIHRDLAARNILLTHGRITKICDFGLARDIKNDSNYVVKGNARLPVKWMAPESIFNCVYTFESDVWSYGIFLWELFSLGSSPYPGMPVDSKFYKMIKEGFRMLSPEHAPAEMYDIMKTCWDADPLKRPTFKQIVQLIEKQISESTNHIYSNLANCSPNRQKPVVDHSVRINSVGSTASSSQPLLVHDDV
Sequence of KIT (human), P10721 [L576P] (P10721 whole entry L576P, looked up): as the sequence (P10721 whole entry V559D/V654A, looked up) above, with D559V, L576P, A654V counted along it
Sequence of RET (human), P07949 [V804M] (P07949 whole entry V804M, looked up): as the sequence (P07949 whole entry M918T, looked up) above, with V804M, T918M counted along it

| Compound | kinase still bound, per cent of control [1] [%] | kinase still bound, per cent of control [2] [%] | kinase still bound, per cent of control [3] [%] | kinase still bound, per cent of control [4] [%] | kinase still bound, per cent of control [5] [%] | kinase still bound, per cent of control [6] [%] | kinase still bound, per cent of control [7] [%] | kinase still bound, per cent of control [8] [%] | kinase still bound, per cent of control [9] [%] | kinase still bound, per cent of control [10] [%] | kinase still bound, per cent of control [11] [%] | kinase still bound, per cent of control [12] [%] |
| --- | --- | --- | --- | --- | --- | --- | --- | --- | --- | --- | --- | --- |
| N#Cc1cc(-c2ccnc(Nc3ccc(-n4cnc(-c5cccnc5)n4)cc3)n2)cc(N2CCOCC2)c1 | 17 | 58 | 21 | 86 | 14 | 97 | 84 | 79 | 42 | 100 | 100 | 87 |
| O=C(NOC[C@H](O)CO)c1ccc(F)c(F)c1Nc1ccc(I)cc1F | 75 | 78 | 87 | 77 | 100 | 100 |  | 51 | 100 | 79 | 100 | 70 |
| CNC(=O)Nc1ccc(-c2nc(N3CC4CCC(C3)O4)c3cnn(C4CCC5(CC4)OCCO5)c3n2)cc1 | 85 | 79 | 82 | 68 | 24 | 100 | 99 | 50 | 100 | 73 | 100 | 55 |
| CC(=O)c1c(C)c2cnc(Nc3ccc(N4CCNCC4)cn3)nc2n(C2CCCC2)c1=O | 24 | 61 | 22 | 39 | 58 | 60 | 59 |  |  |  | 14 | 87 |
| O=C1Nc2ccc(I)cc2/C1=C/c1cc(Br)c(O)c(Br)c1 | 6.6 | 100 | 40 | 65 | 72 | 98 | 81 | 50 | 5.7 | 100 | 100 | 35 |
| COc1cc2c(Nc3ccc(NC(=O)c4ccccc4)cc3)ncnc2cc1OCCCN1CCOCC1 | 0 | 34 | 13 | 42 |  | 85 | 35 | 26 | 5.8 | 0.1 | 12 | 14 |
| Cc1ccc(NC(=O)c2cccc(C(C)(C)C#N)c2)cc1Nc1ccc2ncn(C)c(=O)c2c1 | 0.55 | 100 | 60 | 79 | 100 | 99 | 1.4 | 14 | 1.2 | 0.4 | 0.15 | 17 |
| CCN1CCN(Cc2ccc(NC(=O)c3ccc(C)c(/C=C/c4cnc5[nH]ccc5c4OC)c3)cc2C(F)(F)F)CC1 | 0 | 50 | 0.15 | 9.9 | 79 | 77 | 0.25 | 0 | 2.6 | 0 | 0 | 0 |
| N#Cc1c(NC(=O)c2cccc3ccccc23)sc2c1CCCC2 | 79 | 88 | 84 |  | 71 |  | 95 |  | 100 | 95 | 92 |  |
| COc1cc(N2CCN(C)CC2)ccc1Nc1nc(N)c(C(=O)c2c(Cl)cccc2Cl)s1 | 100 | 100 | 99 | 100 | 100 | 100 | 98 | 91 | 94 | 100 | 100 | 89 |
| CN(C)C/C=C/C(=O)Nc1cccc(Nc2ncc3c(n2)N(C)c2ccccc2C(=O)N3C)c1 | 33 | 37 | 5.3 | 43 | 77 | 86 | 0 | 77 | 96 | 0.55 | 0.15 | 74 |
| C[C@@H](Oc1cc(-n2cnc3ccc(CN4CCN(C)CC4)cc32)sc1C(N)=O)c1ccccc1C(F)(F)F | 54 | 20 | 10 | 54 | 98 | 78 | 69 | 100 | 100 | 100 | 100 | 100 |
| CCN(CCO)CCCOc1ccc2c(Nc3cc(CC(=O)Nc4cccc(F)c4)[nH]n3)ncnc2c1 | 0 | 14 | 4 |  | 30 |  | 28 |  |  | 0.2 | 5.5 |  |
| CCCS(=O)(=O)Nc1ccc(F)c(C(=O)c2c[nH]c3ncc(-c4ccc(Cl)cc4)cc23)c1F | 0 | 100 |  |  | 78 | 100 |  | 78 | 26 | 28 | 91 | 71 |
| N#C/C(=C1/Nc2ccccc2S1)c1ccnc(NCCc2cccnc2)n1 | 33 | 68 | 83 |  | 88 |  | 100 |  | 100 | 100 | 88 |  |
| O=C(O)c1ccc(Nc2ncc3c(n2)-c2ccc(Cl)cc2C(c2c(F)cccc2F)=NC3)cc1 | 60 | 100 |  | 50 | 51 |  |  |  | 60 | 54 | 89 | 34 |
| CCOc1cc2ncc(C#N)c(Nc3ccc(OCc4ccccn4)c(Cl)c3)c2cc1NC(=O)/C=C/CN(C)C |  | 100 | 94 |  | 86 |  |  |  |  | 100 | 91 |  |
| Cc1ccc2nc(NCCN)c3ncc(C)n3c2c1 |  | 100 | 100 | 50 | 100 | 100 | 100 | 100 | 100 | 100 | 100 | 100 |
